From article PMC4450297, “Screening Active Compounds from Garcinia Species Native to China Reveals Novel Compounds Targeting the STAT/JAK Signaling Pathway” (BioMed Research International, 2015)

tested on: J82; assay: Cell panel screen (CellTiter-Glo); type: cell-based, human; settings: J82 (Urinary bladder), 20 micromolar, 72 hrs
In short: (§1)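 Compound, diluted from DMSO into culture medium, was added at a final 20 μM; control wells got equal DMSO. After 72 h, luminescent ATP signal was recorded and converted to percent inhibition.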

Row | SMILES | Percent Inhibition [%]
1 | CC1(C)C=Cc2c(cc(O)c3c(=O)c4cc5c(c(O)c4oc23)OC(C)(C)C=C5)O1 [Go-16] | 23

tested on: HEC-1-A; assay: Cell panel screen (CellTiter-Glo); type: cell-based, human; settings: HEC-1-A (Uterus), 20 micromolar, 72 hrs
In short: as §1

Row | SMILES | Percent Inhibition [%]
2 | CC1(C)C=Cc2c(cc(O)c3c(=O)c4cc5c(c(O)c4oc23)OC(C)(C)C=C5)O1 [Go-16] | 11

tested on: T98G; assay: Cell panel screen (CellTiter-Glo); type: cell-based, human; settings: T98G (Brain), 20 micromolar, 72 hrs
In short: as §1

Row | SMILES | Percent Inhibition [%]
3 | CC1(C)C=Cc2c(cc(O)c3c(=O)c4cc5c(c(O)c4oc23)OC(C)(C)C=C5)O1 [Go-16] | 29

tested on: ChaGo-K-1; assay: Cell panel screen (CellTiter-Glo); type: cell-based, human; settings: ChaGo-K-1 (Lung), 20 micromolar, 72 hrs
In short: as §1

Row | SMILES | Percent Inhibition [%]
4 | CC1(C)C=Cc2c(cc(O)c3c(=O)c4cc5c(c(O)c4oc23)OC(C)(C)C=C5)O1 [Go-16] | 9

tested on: A498; assay: Cell panel screen (CellTiter-Glo); type: cell-based, human; settings: A498 (listed under Lung), 20 micromolar, 72 hrs
In short: as §1

Row | SMILES | Percent Inhibition [%]
5 | CC1(C)C=Cc2c(cc(O)c3c(=O)c4cc5c(c(O)c4oc23)OC(C)(C)C=C5)O1 [Go-16] | 12

tested on: HCC1937; assay: Cell panel screen (CellTiter-Glo); type: cell-based, human; settings: HCC1937 (Breast), 20 micromolar, 72 hrs
In short: as §1

Row | SMILES | Percent Inhibition [%]
6 | CC1(C)C=Cc2c(cc(O)c3c(=O)c4cc5c(c(O)c4oc23)OC(C)(C)C=C5)O1 [Go-16] | 25

tested on: CW-2; assay: Cell panel screen (CellTiter-Glo); type: cell-based, human; settings: CW-2 (Colon), 20 micromolar, 72 hrs
In short: as §1

Row | SMILES | Percent Inhibition [%]
7 | CC1(C)C=Cc2c(cc(O)c3c(=O)c4cc5c(c(O)c4oc23)OC(C)(C)C=C5)O1 [Go-16] | 17

tested on: ZR-75-30; assay: Cell panel screen (CellTiter-Glo); type: cell-based, human; settings: ZR-75-30 (Breast), 20 micromolar, 72 hrs
In short: as §1

Row | SMILES | Percent Inhibition [%]
8 | CC1(C)C=Cc2c(cc(O)c3c(=O)c4cc5c(c(O)c4oc23)OC(C)(C)C=C5)O1 [Go-16] | 47

tested on: Bel-7402; assay: Cell panel screen (CellTiter-Glo); type: cell-based, human; settings: Bel-7402 (Liver), 20 micromolar, 72 hrs
In short: as §1

Row | SMILES | Percent Inhibition [%]
9 | CC1(C)C=Cc2c(cc(O)c3c(=O)c4cc5c(c(O)c4oc23)OC(C)(C)C=C5)O1 [Go-16] | 15

tested on: C3A; assay: Cell panel screen (CellTiter-Glo); type: cell-based, human; settings: C3A (Liver), 20 micromolar, 72 hrs
In short: as §1

Row | SMILES | Percent Inhibition [%]
10 | CC1(C)C=Cc2c(cc(O)c3c(=O)c4cc5c(c(O)c4oc23)OC(C)(C)C=C5)O1 [Go-16] | 22

tested on: RL95; assay: Cell panel screen (CellTiter-Glo); type: cell-based, human; settings: RL95 (Uterus), 20 micromolar, 72 hrs
In short: as §1

Row | SMILES | Percent Inhibition [%]
11 | CC1(C)C=Cc2c(cc(O)c3c(=O)c4cc5c(c(O)c4oc23)OC(C)(C)C=C5)O1 [Go-16] | -8

tested on: T47D; assay: Cell panel screen (CellTiter-Glo); type: cell-based, human; settings: T47D (Breast), 20 micromolar, 72 hrs
In short: as §1

Row | SMILES | Percent Inhibition [%]
12 | CC1(C)C=Cc2c(cc(O)c3c(=O)c4cc5c(c(O)c4oc23)OC(C)(C)C=C5)O1 [Go-16] | 20

tested on: HCC1395; assay: Cell panel screen (CellTiter-Glo); type: cell-based, human; settings: HCC1395 (Breast), 20 micromolar, 72 hrs
In short: as §1

Row | SMILES | Percent Inhibition [%]
13 | CC1(C)C=Cc2c(cc(O)c3c(=O)c4cc5c(c(O)c4oc23)OC(C)(C)C=C5)O1 [Go-16] | 68

tested on: MSTO-211-H; assay: Cell panel screen (CellTiter-Glo); type: cell-based, human; settings: MSTO-211-H (Lung), 20 micromolar, 72 hrs
In short: as §1

Row | SMILES | Percent Inhibition [%]
14 | CC1(C)C=Cc2c(cc(O)c3c(=O)c4cc5c(c(O)c4oc23)OC(C)(C)C=C5)O1 [Go-16] | 34

tested on: C8166; assay: Cell panel screen (CellTiter-Glo); type: cell-based, human; settings: C8166 (Leukemia), 20 micromolar, 72 hrs
In short: as §1

Row | SMILES | Percent Inhibition [%]
15 | CC1(C)C=Cc2c(cc(O)c3c(=O)c4cc5c(c(O)c4oc23)OC(C)(C)C=C5)O1 [Go-16] | 13

tested on: BT-549; assay: Cell panel screen (CellTiter-Glo); type: cell-based, human; settings: BT-549 (Breast), 20 micromolar, 72 hrs
In short: as §1

Row | SMILES | Percent Inhibition [%]
16 | CC1(C)C=Cc2c(cc(O)c3c(=O)c4cc5c(c(O)c4oc23)OC(C)(C)C=C5)O1 [Go-16] | -5

tested on: NCI-H1694; assay: Cell panel screen (CellTiter-Glo); type: cell-based, human; settings: NCI-H1694 (Lung), 20 micromolar, 72 hrs
In short: as §1

Row | SMILES | Percent Inhibition [%]
17 | CC1(C)C=Cc2c(cc(O)c3c(=O)c4cc5c(c(O)c4oc23)OC(C)(C)C=C5)O1 [Go-16] | 5

tested on: BT-474; assay: Cell panel screen (CellTiter-Glo); type: cell-based, human; settings: BT-474 (Breast), 20 micromolar, 72 hrs
In short: as §1

Row | SMILES | Percent Inhibition [%]
18 | CC1(C)C=Cc2c(cc(O)c3c(=O)c4cc5c(c(O)c4oc23)OC(C)(C)C=C5)O1 [Go-16] | -6

tested on: HPAF-II; assay: Cell panel screen (CellTiter-Glo); type: cell-based, human; settings: HPAF-II (Pancreas), 20 micromolar, 72 hrs
In short: as §1

Row | SMILES | Percent Inhibition [%]
19 | CC1(C)C=Cc2c(cc(O)c3c(=O)c4cc5c(c(O)c4oc23)OC(C)(C)C=C5)O1 [Go-16] | 15

tested on: HCC1599; assay: Cell panel screen (CellTiter-Glo); type: cell-based, human; settings: HCC1599 (Breast), 20 micromolar, 72 hrs
In short: as §1

Row | SMILES | Percent Inhibition [%]
20 | CC1(C)C=Cc2c(cc(O)c3c(=O)c4cc5c(c(O)c4oc23)OC(C)(C)C=C5)O1 [Go-16] | 41

tested on: NCI-H1623; assay: Cell panel screen (CellTiter-Glo); type: cell-based, human; settings: NCI-H1623 (Lung), 20 micromolar, 72 hrs
In short: as §1

Row | SMILES | Percent Inhibition [%]
21 | CC1(C)C=Cc2c(cc(O)c3c(=O)c4cc5c(c(O)c4oc23)OC(C)(C)C=C5)O1 [Go-16] | 33

tested on: Panc 03.27; assay: Cell panel screen (CellTiter-Glo); type: cell-based, human; settings: Panc 03.27 (Pancreas), 20 micromolar, 72 hrs
In short: as §1

Row | SMILES | Percent Inhibition [%]
22 | CC1(C)C=Cc2c(cc(O)c3c(=O)c4cc5c(c(O)c4oc23)OC(C)(C)C=C5)O1 [Go-16] | 20

tested on: NCI-H524; assay: Cell panel screen (CellTiter-Glo); type: cell-based, human; settings: NCI-H524 (Lung), 20 micromolar, 72 hrs
In short: as §1

Row | SMILES | Percent Inhibition [%]
23 | CC1(C)C=Cc2c(cc(O)c3c(=O)c4cc5c(c(O)c4oc23)OC(C)(C)C=C5)O1 [Go-16] | -35

tested on: NCI-H2347; assay: Cell panel screen (CellTiter-Glo); type: cell-based, human; settings: NCI-H2347 (Lung), 20 micromolar, 72 hrs
In short: as §1

Row | SMILES | Percent Inhibition [%]
24 | CC1(C)C=Cc2c(cc(O)c3c(=O)c4cc5c(c(O)c4oc23)OC(C)(C)C=C5)O1 [Go-16] | -8

tested on: SW13; assay: Cell panel screen (CellTiter-Glo); type: cell-based, human; settings: SW13 (Adrenal gland), 20 micromolar, 72 hrs
In short: as §1

Row | SMILES | Percent Inhibition [%]
25 | CC1(C)C=Cc2c(cc(O)c3c(=O)c4cc5c(c(O)c4oc23)OC(C)(C)C=C5)O1 [Go-16] | 6

tested on: TCCSUP; assay: Cell panel screen (CellTiter-Glo); type: cell-based, human; settings: TCCSUP (Urinary bladder), 20 micromolar, 72 hrs
In short: as §1

Row | SMILES | Percent Inhibition [%]
26 | CC1(C)C=Cc2c(cc(O)c3c(=O)c4cc5c(c(O)c4oc23)OC(C)(C)C=C5)O1 [Go-16] | 44

tested on: HT-1197; assay: Cell panel screen (CellTiter-Glo); type: cell-based, human; settings: HT-1197 (Urinary bladder), 20 micromolar, 72 hrs
In short: as §1

Row | SMILES | Percent Inhibition [%]
27 | CC1(C)C=Cc2c(cc(O)c3c(=O)c4cc5c(c(O)c4oc23)OC(C)(C)C=C5)O1 [Go-16] | 35

tested on: NCI-H2405; assay: Cell panel screen (CellTiter-Glo); type: cell-based, human; settings: NCI-H2405 (Lung), 20 micromolar, 72 hrs
In short: as §1

Row | SMILES | Percent Inhibition [%]
28 | CC1(C)C=Cc2c(cc(O)c3c(=O)c4cc5c(c(O)c4oc23)OC(C)(C)C=C5)O1 [Go-16] | 27

tested on: M059J; assay: Cell panel screen (CellTiter-Glo); type: cell-based, human; settings: M059J (Brain), 20 micromolar, 72 hrs
In short: as §1

Row | SMILES | Percent Inhibition [%]
29 | CC1(C)C=Cc2c(cc(O)c3c(=O)c4cc5c(c(O)c4oc23)OC(C)(C)C=C5)O1 [Go-16] | 31

tested on: HGC-27; assay: Cell panel screen (CellTiter-Glo); type: cell-based, human; settings: HGC-27 (Stomach), 20 micromolar, 72 hrs
In short: as §1

Row | SMILES | Percent Inhibition [%]
30 | CC1(C)C=Cc2c(cc(O)c3c(=O)c4cc5c(c(O)c4oc23)OC(C)(C)C=C5)O1 [Go-16] | 28

tested on: Colo 205; assay: Cell panel screen (CellTiter-Glo); type: cell-based, human; settings: Colo 205, 20 micromolar, 72 hrs
In short: as §1

Row | SMILES | Percent Inhibition [%]
31 | CC1(C)C=Cc2c(cc(O)c3c(=O)c4cc5c(c(O)c4oc23)OC(C)(C)C=C5)O1 [Go-16] | 4

tested on: HCC1569; assay: Cell panel screen (CellTiter-Glo); type: cell-based, human; settings: HCC1569 (Breast), 20 micromolar, 72 hrs
In short: as §1

Row | SMILES | Percent Inhibition [%]
32 | CC1(C)C=Cc2c(cc(O)c3c(=O)c4cc5c(c(O)c4oc23)OC(C)(C)C=C5)O1 [Go-16] | 11

tested on: A704; assay: Cell panel screen (CellTiter-Glo); type: cell-based, human; settings: A704 (Kidney), 20 micromolar, 72 hrs
In short: as §1

Row | SMILES | Percent Inhibition [%]
33 | CC1(C)C=Cc2c(cc(O)c3c(=O)c4cc5c(c(O)c4oc23)OC(C)(C)C=C5)O1 [Go-16] | 17

tested on: CCF-STTG1; assay: Cell panel screen (CellTiter-Glo); type: cell-based, human; settings: CCF-STTG1 (Brain), 20 micromolar, 72 hrs
In short: as §1

Row | SMILES | Percent Inhibition [%]
34 | CC1(C)C=Cc2c(cc(O)c3c(=O)c4cc5c(c(O)c4oc23)OC(C)(C)C=C5)O1 [Go-16] | 22

tested on: NCI-H28; assay: Cell panel screen (CellTiter-Glo); type: cell-based, human; settings: NCI-H28 (Lung), 20 micromolar, 72 hrs
In short: as §1

Row | SMILES | Percent Inhibition [%]
35 | CC1(C)C=Cc2c(cc(O)c3c(=O)c4cc5c(c(O)c4oc23)OC(C)(C)C=C5)O1 [Go-16] | 9

tested on: NCI-H1770; assay: Cell panel screen (CellTiter-Glo); type: cell-based, human; settings: NCI-H1770 (Lung), 20 micromolar, 72 hrs
In short: as §1

Row | SMILES | Percent Inhibition [%]
36 | CC1(C)C=Cc2c(cc(O)c3c(=O)c4cc5c(c(O)c4oc23)OC(C)(C)C=C5)O1 [Go-16] | 25
